Biological target: T1, GPX4 (Mus musculus, UniProt O70325)
T1 sequence (O70325 28-197): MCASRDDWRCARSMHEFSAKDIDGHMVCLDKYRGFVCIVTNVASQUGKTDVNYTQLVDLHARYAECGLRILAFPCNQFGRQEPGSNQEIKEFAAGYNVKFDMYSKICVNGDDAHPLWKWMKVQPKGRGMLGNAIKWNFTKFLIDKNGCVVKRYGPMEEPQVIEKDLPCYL
Experiment: cellular thermal shift assay
Type: cell-based

COc1ccc(N(C(=O)CCl)C(C(=O)NCCc2ccccc2)c2cccs2)cc1Cl (stereo not shown) [ML162]
cellular thermal shift assay (CETSA): Both the GPX4-targeting ligand ML162 and ML-NR were found to enhance the thermal stability of the GPX4 protein

Reference: publication PMC11846984 (Nature Communications, 2025)
